The source of these data is US6344324B2, “Quantification of cellular injury using expression of a fluorescent protein under the control of the GADD153 promoter” (Research Development Foundation, priority 2000, dated 2002).

Several values for one entry are separate records, joined by “and”; a condition that tells them apart may be missing. Equal values may be shown once. Read-outs that look alike come from different tables or passages of the source. Starred links: 1 amine or outer side, 2 acyl side, 3 side chain; linkers in the order of their positions; H or OH if unused. Positions of bridges follow the written chain, without caps; N, C: chain ends. Non-standard residues stand in square brackets, D forms with d. Residues, ends and D or L forms follow the SMILES beside them. Chains are numbered I, II in the order given. Actinocin(9to1) = Cc1c2oc3c(C)ccc(C(=O)[*:1])c3nc-2c(C(=O)[*:2])c(N)c1=O; NMeV = CN[C@H](C(=O)O)C(C)C; Sar = CNCC(=O)O

Data set [1] deals with GADD153 promoter activity in T10b45 cells.
Procedure: T10b45 cells were harvested 4 days following exposure to the injurious agent, washed once and resuspended in PBS. Cytometric analysis was performed using a Becton Dickinson (Mountain View, Calif.) FACScan equipped with an argon ion laser tuned to 488 nm to excite EGFP, and a 515/545 bandpass filter to monitor the green fluorescence emitted by EGFP. The acquired data were analyzed with the CELLQuest program. Twenty thousand events were collected for each sample. An analytical gate was set such that less than 0.2% of the untreated cells exceeded the gate. The relative fold induction was calculated by dividing the percent of treated cells in the gated region by that of untreated cells harvested at same time.
Three hundred thousand T10b45 cells were seeded into 60 mm tissue culture dishes and treated 24 h later so that all experiments were performed with cells in the logarithmic phase of growth. The chemical agents were added directly to the tissue culture media. At the indicated times, the medium was removed and the cells were washed twice with serum-free medium and then incubated for 4 days in fresh drug-free medium at 37° C. following which they were subjected to flow cytometric analysis.
The subject of another data set is T10b45 cells. As to the kind of experiment: Clonogenic (colony-forming) assay. The class given is cell-based, human.
Another data set relates to GADD153 mRNA. The conditions noted are these: UMSCC10b xenografts in nude mice, 50 mg/kg, 24 hr post-treatment, relative to untreated mice; ± SD; cited from earlier work.
A further data set deals with T10b45 xenografts. As to the kind of experiment: EGFP expression in T10b45 xenografts in vivo. More on the design: species or system BALB/c nu/nu mice. The conditions noted are these: for tumor cells expressing EGFP: tumors harvested 4 days later, ± SD.
For data set [2] the following is noted: in this strain (BALB/c nu/nu mice); cited from earlier work.
The mark [3] stands for this setting: T10b45 cells, 4 days after the insult, conditions of maximal activation (Table 1).
Setting [4] is: quotient of fold increase in EGFP-expressing cells and Pt in DNA at 10 × IC50, mean ± SD, n = 3.
The mark [5] stands for this setting: colony-forming assay, 1 hour drug exposure, colonies scored after 14 days, mean ± SD, n = 3.
Where [6] appears, read: 50 μM, 1 h exposure, GFP 4 days after treatment, relative to untreated control.
Setting [7] is: 50 nM, 4 h exposure, GFP 4 days after treatment, relative to untreated control.
Setting [8] is: 500 μM, 1 h exposure, GFP 4 days after treatment, relative to untreated control.

In the case of `O=c1[nH]cc(F)c(=O)[nH]1` [5-Fluorouracil], the “Induction Ratio” value in data set [1] (50 μM, 4 h exposure, GFP 4 days after treatment, % GFP expressing cells relative to untreated control) is reported as 3.0. The “activation of EGFP expression (in words)” value in data set [1] (setting [3]) was “relatively impotent”.
Take `Cc1c2oc3c(C)ccc(C(=O)N[C@@H]4C(=O)N[C@H](C(C)C)C(=O)N5CCC[C@H]5C(=O)N(C)CC(=O)N(C)[C@@H](C(C)C)C(=O)O[C@@H]4C)c3nc-2c(C(=O)N[C@@H]2C(=O)N[C@H](C(C)C)C(=O)N3CCC[C@H]3C(=O)N(C)CC(=O)N(C)[C@@H](C(C)C)C(=O)O[C@@H]2C)c(N)c1=O` [Actinomycin D, actinomycin D] (I: T[dV]P[Sar][NMeV] / II: T[dV]P[Sar][NMeV]; ester I:1-I:C, II:1-II:C; linker I:N-II:N via Actinocin(9to1)): in data set [1], the “Induction Ratio” value turned out to be 7.6 and the “activation of EGFP expression (in words)” value was “strongly activated”.
As to `C[C@@]1(CO)[C@H](O)CC[C@@]2(C)[C@H]1CC[C@H]1C[C@@H]3C[C@@]12CC[C@]3(O)CO` [Aphidicolin, aphidicolin], the “Induction Ratio” value in data set [1] (20 μM, 24 h exposure, GFP 4 days after treatment, relative to untreated control) amounted to 2.5. In addition, the “activation of EGFP expression (in words)” value in data set [1] (setting [3]) was “relatively impotent”.
In the case of `O=NN(CCCl)C(=O)NCCCl` [BCNU], in data set [1], the “Induction Ratio” value was found to be 4 and the “activation of EGFP expression (in words)” value was “failed to produce significant activation”.
Regarding `N.N.O=C([O-])C1(C(=O)[O-])CCC1.[Pt+2]` [Carboplatin, carboplatin], the “GFP fold induction at 10 × IC50” value in data set [1] is 23 ± 2.6. The “Induction Ratio” value in data set [1] (200 μM, 42 h exposure (so in the source), GFP 4 days after treatment, relative to untreated control) worked out at 33. The “activation of EGFP expression (in words)” value in data set [1] (setting [3]) is “strongly activated”. In addition, the “Relative EGFP activation potency at 10 × IC50” value in data set [1] (setting [4]) was 750.4 ± 22.1 fold induction/ng Pt/ug DNA. The IC50 in the data set on T10b45 cells (setting [5]) was 10.7 ± 0.83 µM.
With `N.N.[Cl][Pt][Cl]` [Cisplatin], the “GFP fold induction at 10 × IC50” value in data set [1] worked out at 38 ± 3.2. Further, the “Relative EGFP activation potency at 10 × IC50” value in data set [1] was 825.0 ± 29.4 fold induction/ng Pt/ug DNA. For the same compound, the “Induction Ratio” value in data set [1] (setting [6]) is 42. Further, the “activation of EGFP expression (in words)” value in data set [1] (setting [3]) is “strongly activated”. The same compound showed an IC50 in the data set with T10b45 cells (setting [5]) of 4.2 ± 0.03 µM. In the data set with GADD153 mRNA, the “GADD153 mRNA level increase” value was 3.0±0.4 fold. Moreover, in the data set with T10b45 xenografts (5 mg/kg single i.p., 4 days, relative to untreated tumors), the “fold increase in the fraction of EGFP-expressing cells” value is 3.8 fold. For the same compound, in the data set with T10b45 xenografts (15 mg/kg single i.p., 4 days, relative to untreated tumors), the “fold increase in the fraction of cells expressing EGFP” value was 29 fold and 29.2±6.2 fold. For the same compound, the “tumor cells expressing EGFP” value turned out to be 0.49±0.5% with T10b45 xenografts (cisplatin 5 mg/kg single i.p.) and 3.8±0.8% in the data set with T10b45 xenografts (cisplatin 15 mg/kg single i.p., untreated 0.13±0.02 %). In data set [2], the LD10 is recorded as 12 mg/kg.
In the case of `COc1cccc2c1C(=O)c1c(O)c3c(c(O)c1C2=O)C[C@@](O)(C(=O)CO)C[C@@H]3O[C@H]1C[C@H](N)[C@H](O)[C@H](C)O1` [Doxorubicin, doxorubicin], the “Induction Ratio” value in data set [1] (100 nM, 4 h exposure, GFP 4 days after treatment, relative to untreated control) amounted to 2.4. Moreover, the “activation of EGFP expression (in words)” value in data set [1] (setting [3]) is “relatively impotent”.
With `COc1cc([C@@H]2c3cc4c(cc3[C@@H](O[C@@H]3O[C@@H]5CO[C@@H](C)O[C@H]5[C@H](O)[C@H]3O)[C@H]3COC(=O)[C@H]23)OCO4)cc(OC)c1O` [Etoposide, etoposide], the “Induction Ratio” value in data set [1] (5 μM, 4 h exposure, GFP 4 days after treatment, relative to untreated control) is listed as 4. Moreover, the “activation of EGFP expression (in words)” value in data set [1] (setting [3]) is “relatively impotent”.
On to `Nc1ccn([C@@H]2O[C@H](CO)[C@@H](O)C2(F)F)c(=O)n1` [Gemcitabine, gemcitabine], for which the “Induction Ratio” value in data set [1] (setting [7]) is 0.6. The “activation of EGFP expression (in words)” value in data set [1] (setting [3]) is recorded as “relatively impotent”.
Turning to `OO` [Hydrogen peroxide, hydrogen peroxide], the “Induction Ratio” value in data set [1] (setting [8]) came out at 13. Moreover, the “activation of EGFP expression (in words)” value in data set [1] (setting [3]) is “strongly activated”.
`CC(=O)[O][Pt]([NH2])([Cl])([Cl])([NH]C1CCCCC1)[O]C(C)=O` [JM216]: in data set [1], the “GFP fold induction at 10 × IC50” value worked out at 11 ± 3.2. The “Induction Ratio” value in data set [1] (150 μM, 1 h exposure, GFP 4 days after treatment, relative to untreated control) stood at 43. Further, the “activation of EGFP expression (in words)” value in data set [1] (setting [3]) was “strongly activated”. The “Relative EGFP activation potency at 10 × IC50” value in data set [1] (setting [4]) was 70.6 ± 20.5 fold induction/ng Pt/ug DNA. Moreover, in the data set on T10b45 cells (setting [5]), the concentration for half-maximal inhibition (IC50) is 4.5 ± 0.35 µM.
As for `O=C1[O][Pt]2([NH][C@@H]3CCCC[C@H]3[NH]2)[O]C1=O` [Oxaliplatin], in data set [1], the “GFP fold induction at 10 × IC50” value is on record as 100 ± 5.3, the “Induction Ratio” value was determined as 105, the “Relative EGFP activation potency at 10 × IC50” value is on record as 5496.0 ± 655.6 fold induction/ng Pt/ug DNA and the “activation of EGFP expression (in words)” value is reported as “strongly activated”. In the data set with T10b45 cells, this compound had an IC50 of 5.1 ± 0.29 µM.
Regarding `CC(=O)O[C@H]1C(=O)[C@@]2(C)[C@H]([C@H](OC(=O)c3ccccc3)[C@]3(O)C[C@H](OC(=O)[C@H](O)[C@@H](NC(=O)c4ccccc4)c4ccccc4)C(C)=C1C3(C)C)[C@]1(OC(C)=O)CO[C@@H]1C[C@@H]2O` [Paclitaxel, paclitaxel], the “Induction Ratio” value in data set [1] (70 nM, 4 h exposure, GFP 4 days after treatment, relative to untreated control) worked out at 2.8. The “activation of EGFP expression (in words)” value in data set [1] (setting [3]) is “relatively impotent”.
Regarding `Cc1nc2ccc(CN(C)c3ccc(C(=O)N[C@@H](CCC(=O)O)C(=O)O)s3)cc2c(=O)[nH]1` [Raltitrexed], the “Induction Ratio” value in data set [1] (setting [7]) is reported as 0.6. Also, the “activation of EGFP expression (in words)” value in data set [1] (setting [3]) is listed as “relatively impotent”.
Consider `N[C@@H]1CCCC[C@H]1N.[Cl][Pt+2]([Cl])([Cl])[Cl]` [Tetraplatin, tetraplatin], for which the “GFP fold induction at 10 × IC50” value in data set [1] came out at 120 ± 7.8. In addition, in data set [1] (setting [6]), the “Induction Ratio” value stood at 143. The “activation of EGFP expression (in words)” value in data set [1] (setting [3]) is listed as “strongly activated”. The “Relative EGFP activation potency at 10 × IC50” value in data set [1] (setting [4]) is reported as 10482.7 ± 516.9 fold induction/ng Pt/ug DNA. The same compound yielded an IC50 with T10b45 cells (setting [5]) of 3.3 ± 0.17 µM.
As for `CC[C@@]1(O)C(=O)OCc2c1cc1n(c2=O)Cc2cc3c(CN(C)C)c(O)ccc3nc2-1` [Topotecan], the “Induction Ratio” value in data set [1] (20 nM, 4 h exposure, GFP 4 days after treatment, relative to untreated control) is 1.3. Also, in data set [1] (setting [3]), the “activation of EGFP expression (in words)” value was “relatively impotent”.
On to `N.N.[Cl][Pt+2][Cl]` [Transplatin, transplatin], for which the “GFP fold induction at 10 × IC50” value in data set [1] turned out to be 10 ± 2.0. Moreover, the “Induction Ratio” value in data set [1] (setting [8]) was found to be 1. In addition, the “activation of EGFP expression (in words)” value in data set [1] (setting [3]) was “failed to produce significant activation”. Further, in data set [1] (setting [4]), the “Relative EGFP activation potency at 10 × IC50” value is on record as 41.3 ± 8.5 fold induction/ng Pt/ug DNA. For the same compound, in the data set on T10b45 cells (setting [5]), the half-maximal inhibitory concentration (IC50) is 379 ± 31.6 µM.
